Laboratory results: article PMC13366330 (Acta Pharmaceutica Sinica. B, 2025)

How the values were obtained:
[1] = tested on: TAMs in tumor tissue; experiment: M2 polarization of TAMs in tumor tissue, flow cytometry; type: in vivo, C57 mice; conditions: 10 mg/kg, intraperitoneal
[2] = Body and organ weights, organ H&E in the antitumor experiment; type: in vivo, C57 mice; conditions: 100 mg/kg, intraperitoneal

| Structure (SMILES) | percentage of M2 polarization in TAMs [1] [%] | liver H&E finding [2] | spleen weight [2] |
| --- | --- | --- | --- |
| C[C@H](NC(=O)c1c(N)nn2cccnc12)c1cc2cccc(C#Cc3cnn(C)c3)c2c(=O)n1-c1ccccc1 [IPI-549] | 15.40 | – | – |
| CN(C)/N=N/c1[nH]cnc1C(N)=O [dacarbazine] | – | coagulative necrosis | significant decrease |
